In publication PMC12974487, “Inhibition of FicD-mediated AMPylation and deAMPylation by isoprenoid diphosphates” (Proceedings of the National Academy of Sciences of the …, 2026):
Entries after “also recorded” stand apart in the source; their conditions may differ.

Biological target: T1, FicD^R374H (Homo sapiens, UniProt Q9BVA6, R374H)
T1 construct: Wild-type FicD (residues 105-458) and all mutants were expressed as N-terminal 6xHis-Sumo fusions; 6xHis-Sumo (N, cleaved yes); made in house; host or cells: Rosetta(DE3) E. coli
T1 sequence (Q9BVA6 105-458 R374H): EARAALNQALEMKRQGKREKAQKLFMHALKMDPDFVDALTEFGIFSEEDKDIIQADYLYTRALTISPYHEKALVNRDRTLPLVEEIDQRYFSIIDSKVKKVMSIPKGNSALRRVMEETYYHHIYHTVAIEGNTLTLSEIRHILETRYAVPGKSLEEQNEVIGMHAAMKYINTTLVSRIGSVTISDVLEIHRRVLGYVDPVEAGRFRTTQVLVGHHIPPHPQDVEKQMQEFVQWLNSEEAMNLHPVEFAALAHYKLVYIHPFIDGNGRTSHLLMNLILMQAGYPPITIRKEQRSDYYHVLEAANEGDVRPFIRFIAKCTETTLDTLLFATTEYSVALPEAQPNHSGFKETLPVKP
Assay: AMPylation of Δ26hBiP^T229A by pathogenic variant FicD^R374H
Assay type: biochemical
Conditions: indicated concentrations of FPP
From the text: Fig. 5. Crystal structure of FPP inhibitor bound to FicD active site. […] FPP (cyan stick) and Mg^2+ (cyan sphere) in the pocket of FicD shown as APBS electrostatic surface with positive areas in blue, negative in red, and neutral in white (contour level: ±5 kBT/e) (Right). […] (C–E) AMPylation assays of Δ26hBiP^T229A in the presence of the indicated concentration of FPP using the pathogenic human variants (C) FicD^R371S, (D) FicD^R374H and (E) FicD^R374C. AMPylated BiP and Fic were quantified by immunodetection, and total BiP was quantified by CBB. […]
Isothermal Titration Calorimetry
Proteins were dialyzed against 25mM HEPES pH 7.4/100mM KCl/10% glycerol prior to titration.
Dialyzed proteins were then spun down at 21,000G for 15 minutes at 4C to remove trace insoluble material. The protein concentration was measured spectrophotometrically and then diluted to working concentration with 25mM HEPES pH 7.4/100mM KCl/10% glycerol. MgCl2 was added to proteins to a final concentration of 4mM. ITC experiments were performed in a Micro-Cal PEAQ-ITC (Malvern Panalytical, Worcestershire, UK) calorimeter with a stirred 206.2 μL reaction cell held at 20 °C. 250μM FPP was titrated into 25uM Δ104hFicL258D with 750rpm stirring. The first injection was 0.5 μL, followed by twenty 1.9 μL injections. […]
Thermogram and binding figures were plotted in […]

For `CC(C)=CCC/C(C)=C/CC/C(C)=C/COP(=O)(O)OP(=O)(O)O` [FPP, farnesyl-pyrophosphate], the “FPP inhibition of FicD^R374H mediated AMPylation” value was “inhibition; also recorded: inhibited”.
